Experimental data reported in article PMC4551390 (Leukemia, 2015).

Assay: Plasma pharmacokinetics after 2-hr IV infusion
Settings: for AUC / Cmax / half-life: human, plasma, intravenous; for AUC / Cmax: Mean

In the case of `CCc1cnn2c(NCc3ccc[n+]([O-])c3)cc(N3CCCC[C@H]3CCO)nc12` [Dinaciclib], the “CL, Mean” value (Day 1, 5 mg/m^2) was 26.2 L/hr/m2, the “Vd, Mean” value (Day 1, 5 mg/m^2) was 92.8 L/m2 and the “CL, Mean” value (Day 1, 7 mg/m^2) was 17.3 L/hr/m2. The “Vd, Mean” value (Day 1, 7 mg/m^2) was 66.2 L/m2, the “CL, Mean” value (Day 1, 10 mg/m^2) was 19.9 L/hr/m2 and the “Vd, Mean” value (Day 1, 10 mg/m^2) was 81.8 L/m2. The “CL, Mean” value (Day 1, 14 mg/m^2) was 18.1 L/hr/m2, the “Vd, Mean” value (Day 1, 14 mg/m^2) was 74.4 L/m2 and the “CL, Mean” value (Day 1, 17 mg/m^2) was 13.2 L/hr/m2. For the same compound, the “Vd, Mean” value (Day 1, 17 mg/m^2) was 55.9 L/m2, the “CL, Mean” value (Day 15, 5 mg/m^2) was 16.1 L/hr/m2 and the “Vd, Mean” value (Day 15, 5 mg/m^2) was 60.3 L/m2. For the same compound, the “CL, Mean” value (Day 15, 7 mg/m^2) was 23.8 L/hr/m2, the “Vd, Mean” value (Day 15, 7 mg/m^2) was 79.5 L/m2 and the “CL, Mean” value (Day 15, 10 mg/m^2) was 16.8 L/hr/m2. The “Vd, Mean” value (Day 15, 10 mg/m^2) was 68.4 L/m2, the “CL, Mean” value (Day 15, 14 mg/m^2) was 17 L/hr/m2 and the “Vd, Mean” value (Day 15, 14 mg/m^2) was 71.4 L/m2. For the same compound, the “CL, Mean” value (Day 15, 17 mg/m^2) was 13.8 L/hr/m2, the “Vd, Mean” value (Day 15, 17 mg/m^2) was 58.9 L/m2 and the “increases in exposure (Cmax and AUC)” value (at 17 mg/m^2) was “greater than dose-proportional”. For the same compound, the AUC (5 mg/m2, AUC(I), Day 1, 5 mg/m^2) was 191 ng·h/mL, the AUC (5 mg/m2, AUC(I), Day 15, 5 mg/m^2) was 310 ng·h/mL and the Cmax (5 mg/m2, Cmax, Day 1, 5 mg/m^2) was 95.4 ng/mL. For the same compound, the Cmax (5 mg/m2, Cmax, Day 15, 5 mg/m^2) was 150 ng/mL, the half-life (5 mg/m2, T1/2, Mean, Day 1, 5 mg/m^2) was 2.45 h and the half-life (5 mg/m2, T1/2, Mean, Day 15, 5 mg/m^2) was 2.5 h. The AUC (7 mg/m2, AUC(I), Day 1, 7 mg/m^2) was 403 ng·h/mL, the AUC (7 mg/m2, AUC(I), Day 15, 7 mg/m^2) was 294 ng·h/mL and the Cmax (7 mg/m2, Cmax, Day 15, 7 mg/m^2) was 157 ng/mL. The half-life (7 mg/m2, T1/2, Mean, Day 15, 7 mg/m^2) was 2.31 h, the AUC (10 mg/m2, AUC(I), Day 1, 10 mg/m^2) was 501 ng·h/mL and the AUC (10 mg/m2, AUC(I), Day 15, 10 mg/m^2) was 592 ng·h/mL. The Cmax (10 mg/m2, Cmax, Day 1, 10 mg/m^2) was 277 ng/mL, the Cmax (10 mg/m2, Cmax, Day 15, 10 mg/m^2) was 299 ng/mL and the half-life (10 mg/m2, T1/2, Mean, Day 1, 10 mg/m^2) was 2.85 h. For the same compound, the half-life (10 mg/m2, T1/2, Mean, Day 15, 10 mg/m^2) was 2.82 h, the AUC (14 mg/m2, AUC(I), Day 1, 14 mg/m^2) was 775 ng·h/mL and the AUC (14 mg/m2, AUC(I), Day 15, 14 mg/m^2) was 827 ng·h/mL. The Cmax (14 mg/m2, Cmax, Day 1, 14 mg/m^2) was 404 ng/mL, the Cmax (14 mg/m2, Cmax, Day 15, 14 mg/m^2) was 428 ng/mL and the half-life (14 mg/m2, T1/2, Mean, Day 1, 14 mg/m^2) was 2.85 h. It also gave an AUC (17 mg/m2, AUC(I), Day 1, 17 mg/m^2) of 1290 ng·h/mL, an AUC (17 mg/m2, AUC(I), Day 15, 17 mg/m^2) of 1260 ng·h/mL and a Cmax (17 mg/m2, Cmax, Day 1, 17 mg/m^2) of 624 ng/mL. For the same compound, the Cmax (17 mg/m2, Cmax, Day 15, 17 mg/m^2) was 634 ng/mL, the half-life (17 mg/m2, T1/2, Mean, Day 15, 17 mg/m^2) was 2.95 h and the accumulation in plasma (weekly 2-hour IV infusion) was “did not accumulate”.
